“And” between values parts separate entries of the source, which are not always exact repeats. Equal entries are not always repeated.
How the values were obtained:
CK1γ1 [1] = molecular target: T1, CK1γ1 (Homo sapiens, UniProt Q9HCP0); experiment: Eurofins kinase enzymatic radiometric assay, CK1γ1; type: biochemical; conditions: Km = ATP, 9-pt curve in duplicate
T1 construct: purchased Eurofins
Excerpt: Details related to the substrate used, protein constructs, controls, and assay protocol for each kinase assay are included on the Eurofins website: https://www.eurofinsdiscoveryservices.com/.

GSK3β = molecular target: T2, GSK3β (Homo sapiens, UniProt P49841); experiment: scanMAX binding assay, GSK3β; conditions: Percent of Control; legend and method: 1 μM
T2 construct: purchased Eurofins DiscoverX Corporation
Excerpt: (§1) As described previously, this commercial assay platform screens against 403 WT human kinases in binding assays and provides PoC values ([73]).

GSK3α = molecular target: T3, GSK3α (Homo sapiens, UniProt P49840); experiment: scanMAX binding assay, GSK3α; conditions: Percent of Control; legend and method: 1 μM
T3 construct: purchased Eurofins DiscoverX Corporation
Excerpt: as §1

CK1γ2 = molecular target: T4, CK1γ2 (Homo sapiens, UniProt P78368); experiment: scanMAX binding assay, CK1γ2; conditions: Percent of Control; legend and method: 1 μM; read-out: CK1γ2 PoC @ 1 µM
T4 construct: purchased Eurofins
Excerpt: as §1

CK1γ3 = molecular target: T5, CK1γ3 (Homo sapiens, UniProt Q9Y6M4); experiment: scanMAX binding assay, CK1γ3; conditions: Percent of Control; legend and method: 1 μM; read-out: CK1γ3 PoC @ 1 µM
T5 construct: purchased Eurofins
Excerpt: as §1

CK1γ1 [2] = molecular target: T1, CK1γ1; experiment: scanMAX binding assay, CK1γ1; conditions: Percent of Control; legend and method: 1 μM; read-out: CK1γ1 PoC @ 1 µM
Excerpt: as §1

DYRK1A = molecular target: T6, DYRK1A (Homo sapiens, UniProt Q13627); experiment: scanMAX binding assay, DYRK1A; conditions: Percent of Control; legend and method: 1 μM; read-out: DYRK1A PoC @ 1mM
T6 construct: purchased Eurofins DiscoverX Corporation
Excerpt: as §1

CIT = molecular target: T7, CIT (Homo sapiens, UniProt O14578); experiment: scanMAX binding assay, CIT; conditions: Percent of Control; legend and method: 1 μM; read-out: CIT PoC @ 1 µM
T7 construct: purchased Eurofins DiscoverX Corporation
Excerpt: as §1

IRAK1 = molecular target: T8, IRAK1 (Homo sapiens, UniProt P51617); experiment: scanMAX binding assay, IRAK1; conditions: Percent of Control; legend and method: 1 μM; read-out: IRAK1 PoC @ 1 µM
T8 construct: purchased Eurofins DiscoverX Corporation
Excerpt: as §1

CSNK1A1 = CSNK1A1 (Homo sapiens, UniProt P48729); experiment: scanMAX binding assay, CSNK1A1; conditions: Percent of Control; legend and method: 1 μM; read-out: CSNK1A1 PoC @ 1 µM
Excerpt: as §1

ADCK3 = molecular target: T9, ADCK3 (Homo sapiens, UniProt Q8NI60); experiment: scanMAX binding assay, ADCK3; conditions: Percent of Control; legend and method: 1 μM; read-out: ADCK3 PoC @ 1 µM
T9 construct: purchased Eurofins DiscoverX Corporation (scanMAX)
Excerpt: as §1

CSNK1A1L = CSNK1A1L (Homo sapiens, UniProt Q8N752); experiment: scanMAX binding assay, CSNK1A1L; conditions: Percent of Control; legend and method: 1 μM; read-out: CSNK1A1L PoC @ 1 µM
Excerpt: as §1

TAK1 = molecular target: T10, TAK1 (Homo sapiens, UniProt O43318); experiment: scanMAX binding assay, TAK1; conditions: Percent of Control; legend and method: 1 μM; read-out: TAK1 PoC @ 1 µM
T10 construct: purchased Eurofins DiscoverX Corporation (scanMAX)
Excerpt: as §1

CLK2 = molecular target: T11, CLK2 (Homo sapiens, UniProt P49760); experiment: scanMAX binding assay, CLK2; conditions: Percent of Control; legend and method: 1 μM; read-out: CLK2 PoC @ 1 µM
T11 construct: purchased Eurofins DiscoverX Corporation (scanMAX)
Excerpt: as §1

CK1γ2 (NLuc-CK1γ2) = molecular target: T12, CK1γ2 (NLuc-CK1γ2) (Homo sapiens, UniProt P78368); experiment: NanoBRET cellular target engagement assay, NLuc-CK1γ2 in HEK293T cells; type: cell-based; conditions: live HEK293T cells, 0.5 μM tracer K-10; read-out: NL-CK1γ2 NanoBRET IC50
T12 construct: host or cells: HEK293T
Protocol: HEK293T cells (hypotriploid, fetal) were purchased from ATCC. These cells were grown in Dulbecco’s modified Eagle’s medium (Gibco) supplemented with 10% (v/v) fetal bovine serum (Corning). They were incubated in 5% CO2 at 37 °C and passaged every 72 h with trypsin and not allowed to reach confluency. Constructs for NanoBRET measurements of CK1γ2 (NLuc-CK1γ2) and GSK3β (NLuc-GSK3β) were kindly provided by Promega. NanoBRET assays were carried out as described previously ([74]). Preferred NLuc orientations, both N-terminal in this case, are indicated in parentheses after each construct. Assays were carried out in dose–response as described by the manufacturer using 0.5 μM of tracer K-10 for CK1γ2 and 0.063 μM of tracer K-8 for GSK3β. Two biological replicates were executed with two technical replicates to produce the graphs with error bars shown in Figures 6E, 7E, 8, A and B. Tracer titration curves for these kinases that motivated our tracer selection and working concentration can be found on the Promega website.

[3] = system: BAR reporter (β-catenin-dependent WNT signaling); experiment: BAR luciferase transcriptional reporter assay in HEK293T B/R cells; type: cell-based, human; conditions: HEK293T B/R cells transfected 14 h, 0.1, 1.0 or 10 μM FP1 for 18 h
Protocol: All luciferase reporter assays were performed as previously described ([15], [43]). […] In both loss-of-function and gain-of-function experiments, treatments (WNT3A CM or drug) were added 18 h before harvesting cells. Conditions were plated in triplicate, and Renilla normalized values were averaged across triplicates to yield the data presented and standard error. Each assay was repeated in biological triplicate, unless otherwise stated. Firefly luciferase and the Renilla control were detected using the Promega Dual-Luciferase Reporter Assay System per the manufacturer’s protocol (Promega; catalog no.: E1960). Plates were read on the Victor Nivo plate reader (PerkinElmer).

T1 sequence (Q9HCP0 whole entry): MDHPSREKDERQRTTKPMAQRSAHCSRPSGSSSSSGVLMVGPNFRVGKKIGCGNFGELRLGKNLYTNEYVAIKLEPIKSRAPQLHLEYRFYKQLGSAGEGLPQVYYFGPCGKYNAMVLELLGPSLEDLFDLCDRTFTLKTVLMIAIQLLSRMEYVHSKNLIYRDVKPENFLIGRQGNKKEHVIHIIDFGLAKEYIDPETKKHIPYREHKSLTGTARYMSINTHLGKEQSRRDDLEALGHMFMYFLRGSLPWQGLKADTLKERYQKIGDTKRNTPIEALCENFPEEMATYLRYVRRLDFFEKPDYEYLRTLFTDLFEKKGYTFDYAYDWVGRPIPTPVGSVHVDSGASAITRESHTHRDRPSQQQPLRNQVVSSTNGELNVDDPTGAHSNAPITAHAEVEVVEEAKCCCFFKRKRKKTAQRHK
CSNK1A1L, sequence (Q8N752 whole entry): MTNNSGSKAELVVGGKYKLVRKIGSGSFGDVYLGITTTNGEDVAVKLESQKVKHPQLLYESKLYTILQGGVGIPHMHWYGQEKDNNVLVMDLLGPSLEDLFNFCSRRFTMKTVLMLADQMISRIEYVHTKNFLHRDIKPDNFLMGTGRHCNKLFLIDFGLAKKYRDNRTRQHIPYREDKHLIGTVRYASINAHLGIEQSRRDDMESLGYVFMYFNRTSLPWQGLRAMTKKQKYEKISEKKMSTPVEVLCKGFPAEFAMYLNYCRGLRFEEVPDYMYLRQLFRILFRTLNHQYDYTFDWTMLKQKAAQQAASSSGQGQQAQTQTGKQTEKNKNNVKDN
CSNK1A1, sequence (P48729 whole entry): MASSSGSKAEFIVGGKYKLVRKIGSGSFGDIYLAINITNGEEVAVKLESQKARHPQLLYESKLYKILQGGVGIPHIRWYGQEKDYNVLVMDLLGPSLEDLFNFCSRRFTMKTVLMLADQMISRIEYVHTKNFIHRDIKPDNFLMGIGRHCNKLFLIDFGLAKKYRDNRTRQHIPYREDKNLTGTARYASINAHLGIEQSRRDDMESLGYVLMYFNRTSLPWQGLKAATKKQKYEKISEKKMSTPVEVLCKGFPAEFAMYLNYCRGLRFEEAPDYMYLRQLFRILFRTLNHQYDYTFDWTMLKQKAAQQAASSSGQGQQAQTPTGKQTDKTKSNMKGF
T10 sequence (O43318 whole entry): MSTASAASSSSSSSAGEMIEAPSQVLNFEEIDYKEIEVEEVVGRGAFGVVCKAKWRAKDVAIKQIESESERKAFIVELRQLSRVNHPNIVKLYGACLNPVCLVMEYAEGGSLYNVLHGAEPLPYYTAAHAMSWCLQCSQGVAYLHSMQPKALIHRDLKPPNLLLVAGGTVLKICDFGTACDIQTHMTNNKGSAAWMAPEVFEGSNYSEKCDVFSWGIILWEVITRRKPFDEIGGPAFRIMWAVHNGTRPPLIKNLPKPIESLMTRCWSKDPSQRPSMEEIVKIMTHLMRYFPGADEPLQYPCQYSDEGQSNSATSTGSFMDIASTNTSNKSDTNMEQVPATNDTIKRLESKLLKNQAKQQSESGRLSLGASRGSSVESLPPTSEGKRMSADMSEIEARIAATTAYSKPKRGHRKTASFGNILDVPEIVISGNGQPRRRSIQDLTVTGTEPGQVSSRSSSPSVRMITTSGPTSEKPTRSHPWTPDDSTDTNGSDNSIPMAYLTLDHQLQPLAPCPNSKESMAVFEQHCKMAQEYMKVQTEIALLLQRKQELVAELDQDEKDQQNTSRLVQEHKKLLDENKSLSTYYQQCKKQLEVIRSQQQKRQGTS
T3 sequence (P49840 whole entry): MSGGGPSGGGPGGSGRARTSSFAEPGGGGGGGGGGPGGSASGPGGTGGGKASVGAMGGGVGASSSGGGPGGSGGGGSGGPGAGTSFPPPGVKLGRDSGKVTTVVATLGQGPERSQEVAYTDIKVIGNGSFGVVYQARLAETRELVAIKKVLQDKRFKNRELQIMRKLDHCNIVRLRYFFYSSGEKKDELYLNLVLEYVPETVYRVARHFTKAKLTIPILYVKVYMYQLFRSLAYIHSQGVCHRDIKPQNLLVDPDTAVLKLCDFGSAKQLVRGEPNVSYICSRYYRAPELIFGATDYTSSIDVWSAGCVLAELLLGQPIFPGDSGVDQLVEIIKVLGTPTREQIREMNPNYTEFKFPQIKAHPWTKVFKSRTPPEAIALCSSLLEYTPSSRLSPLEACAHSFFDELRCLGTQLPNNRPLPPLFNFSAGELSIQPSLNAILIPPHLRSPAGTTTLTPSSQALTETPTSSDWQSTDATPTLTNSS
T9 sequence (Q8NI60 163-647): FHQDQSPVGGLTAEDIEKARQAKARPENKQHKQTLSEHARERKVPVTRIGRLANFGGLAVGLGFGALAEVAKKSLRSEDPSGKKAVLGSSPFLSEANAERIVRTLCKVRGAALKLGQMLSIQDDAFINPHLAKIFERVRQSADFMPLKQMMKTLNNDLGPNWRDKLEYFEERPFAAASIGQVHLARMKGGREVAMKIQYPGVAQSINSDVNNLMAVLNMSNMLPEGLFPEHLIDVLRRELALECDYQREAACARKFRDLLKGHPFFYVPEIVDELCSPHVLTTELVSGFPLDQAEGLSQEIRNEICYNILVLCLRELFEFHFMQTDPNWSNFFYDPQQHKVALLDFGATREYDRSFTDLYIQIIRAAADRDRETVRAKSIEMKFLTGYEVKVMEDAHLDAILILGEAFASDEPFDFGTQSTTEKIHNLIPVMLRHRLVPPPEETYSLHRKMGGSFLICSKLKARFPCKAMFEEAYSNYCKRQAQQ
T5 sequence (Q9Y6M4 whole entry): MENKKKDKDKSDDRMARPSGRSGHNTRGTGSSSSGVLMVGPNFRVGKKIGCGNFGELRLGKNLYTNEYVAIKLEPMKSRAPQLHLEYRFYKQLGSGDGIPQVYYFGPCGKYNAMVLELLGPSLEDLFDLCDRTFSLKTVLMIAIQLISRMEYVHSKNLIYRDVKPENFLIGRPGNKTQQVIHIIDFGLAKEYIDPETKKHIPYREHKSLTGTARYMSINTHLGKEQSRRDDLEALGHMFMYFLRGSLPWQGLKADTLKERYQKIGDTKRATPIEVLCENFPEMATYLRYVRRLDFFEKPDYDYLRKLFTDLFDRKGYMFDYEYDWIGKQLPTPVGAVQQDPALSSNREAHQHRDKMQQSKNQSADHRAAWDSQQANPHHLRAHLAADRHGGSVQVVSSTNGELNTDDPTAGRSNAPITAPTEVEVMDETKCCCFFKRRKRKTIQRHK
T4 sequence (P78368 whole entry): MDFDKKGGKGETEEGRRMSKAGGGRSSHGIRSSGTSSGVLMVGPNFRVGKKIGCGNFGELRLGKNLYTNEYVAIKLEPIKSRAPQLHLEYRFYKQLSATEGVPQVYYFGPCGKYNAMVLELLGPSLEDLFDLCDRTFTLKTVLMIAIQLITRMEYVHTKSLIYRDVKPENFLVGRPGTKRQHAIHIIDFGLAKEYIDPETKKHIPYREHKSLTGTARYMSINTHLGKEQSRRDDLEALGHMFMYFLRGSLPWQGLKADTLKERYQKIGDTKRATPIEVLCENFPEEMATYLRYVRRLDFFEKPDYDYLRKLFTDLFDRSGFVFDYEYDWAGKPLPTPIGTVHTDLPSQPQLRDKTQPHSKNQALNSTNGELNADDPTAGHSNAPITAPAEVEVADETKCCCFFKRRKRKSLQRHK
T12 sequence (P78368 whole entry): as above
T2 sequence (P49841 whole entry): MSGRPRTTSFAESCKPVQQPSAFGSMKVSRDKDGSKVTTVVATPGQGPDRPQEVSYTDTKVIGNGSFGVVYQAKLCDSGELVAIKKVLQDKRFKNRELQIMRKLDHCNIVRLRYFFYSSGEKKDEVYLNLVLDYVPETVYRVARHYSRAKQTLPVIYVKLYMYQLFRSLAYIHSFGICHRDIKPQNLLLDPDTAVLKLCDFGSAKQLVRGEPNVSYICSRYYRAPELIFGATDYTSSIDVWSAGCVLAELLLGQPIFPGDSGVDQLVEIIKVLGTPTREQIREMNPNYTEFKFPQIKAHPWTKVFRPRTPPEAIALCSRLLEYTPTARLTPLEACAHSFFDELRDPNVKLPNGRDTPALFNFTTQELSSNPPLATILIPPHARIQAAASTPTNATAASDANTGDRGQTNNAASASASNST
T11 sequence (P49760 whole entry): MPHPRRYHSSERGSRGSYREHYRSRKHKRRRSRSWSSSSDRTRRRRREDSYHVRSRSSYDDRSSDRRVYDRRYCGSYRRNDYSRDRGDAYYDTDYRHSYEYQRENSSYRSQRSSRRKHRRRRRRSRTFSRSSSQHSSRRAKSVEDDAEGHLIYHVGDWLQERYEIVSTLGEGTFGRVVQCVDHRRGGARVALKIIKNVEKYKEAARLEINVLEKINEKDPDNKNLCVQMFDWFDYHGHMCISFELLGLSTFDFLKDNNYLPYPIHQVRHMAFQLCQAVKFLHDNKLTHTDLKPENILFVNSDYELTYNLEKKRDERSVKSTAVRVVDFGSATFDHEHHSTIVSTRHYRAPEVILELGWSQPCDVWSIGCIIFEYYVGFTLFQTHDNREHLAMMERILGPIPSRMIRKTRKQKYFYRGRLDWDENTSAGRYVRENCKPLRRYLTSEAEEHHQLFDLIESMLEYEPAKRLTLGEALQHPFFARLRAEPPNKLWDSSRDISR

For `COc1cnc(COc2ccc(F)c(F)c2)cc1-c1cc2c([nH]1)CCNC2=O` [FP1-24-2, 2-(2-((3,4-difluorophenoxy)methyl)-5-methoxypyridin-4-yl)-1,5,6,7-tetrahydro-4H-pyrrolo[3,2-c]pyridin-4-one], which IC50 (CK1γ1 [1]) is on record?
The IC50 was < 15 nM and 5.29 nM.

And the “GSK3β PoC @ 1 µM” value (GSK3β)?
Its value is “did not inhibit”.

What about the “GSK3α PoC @ 1 µM” value (GSK3α) of the same molecule?
The value was “did not inhibit”.

What about the remaining binding at 1 µM (CK1γ2) of the same molecule?
Its remaining binding at 1 µM is 4.3%.

What about the remaining binding at 1 µM (CK1γ3) of the same molecule?
The remaining binding at 1 µM was 0.9%.

What about the remaining binding at 1 µM (CK1γ1 [2]) of the same molecule?
Its remaining binding at 1 µM is 8.5%.

And the remaining binding at 1000 µM (DYRK1A)?
The remaining binding at 1000 µM was 0.1%.

What about the remaining binding at 1 µM (CIT) of the same molecule?
Its remaining binding at 1 µM is 0.6%.

What about the remaining binding at 1 µM (IRAK1) of the same molecule?
Its remaining binding at 1 µM is 1.1%.

And the remaining binding at 1 µM (CSNK1A1)?
Its remaining binding at 1 µM is 3.1%.

What about the remaining binding at 1 µM (ADCK3) of the same molecule?
Its remaining binding at 1 µM is 5.4%.

And the remaining binding at 1 µM (CSNK1A1L)?
Its remaining binding at 1 µM is 5.9%.

What about the remaining binding at 1 µM (TAK1) of the same molecule?
The remaining binding at 1 µM was 6.9%.

What about the remaining binding at 1 µM (CLK2) of the same molecule?
Its remaining binding at 1 µM is 7.2%.

And the IC50 (CK1γ2 (NLuc-CK1γ2))?
The IC50 was 10.7 nM.

What about the “BAR activity with CK1γ3 overexpression” value [3] of the same molecule?
The value was “decrease”.
